pEC50, pIC50: −log10 of the molar value. Values after ≈ are worked out from the molar mass of the structure shown. Where two headings read alike, the source gives them in different places.

A short description of series [1]: Aqueous solubility (laser nephelometry). The class given is physicochemical. The conditions noted are these: aqueous assay buffer pH 6.5 with 1% DMSO, aqueous buffer, kinetic from dmso stock, pH 6.5, 1% DMSO, 30 minute incubation at 25° C. How it is done:
Test compounds prepared in DMSO were screened in duplicate over a range of concentrations (1.6-100 ug/mL) in different aqueous media (for example a pH6.5 buffers which are relevant to the stomach and upper regions of the small intestine and therefore important when predicting the amount of drug likely to be in solution following oral administration). Test compounds were serially diluted in 100% DMSO ranging from 10-0.16 mg/mL. These titrated DMSO stocks were then further diluted 1:100 with assay buffer and added to test plates (UV Star Griener 384 well plates), maintaining the DMSO concentration at 1%.

For series [2], the system named is genotype 1b (Con 1) subgenomic replicon cell line. The series can be described thus: HCV replicon assay, genotype 1b, Renilla luciferase reporter. The series is classed as cell-based. The conditions noted are these: Hepatitis C virus; 72 hours incubation, Renilla luciferase activity. The procedure:
A genotype 1b (Con 1) subgenomic replicon cell line based on Blight et al., Science 2000 290: 1972-1974, modified to express a Renilla luciferase reporter gene was used to assess antiviral activity of test compounds. Cell cultures were maintained in a sub-confluent state in DMEM with glutamine, 10% heat-inactivated foetal bovine serum (FBS) and G418 (Geneticin®).
For assay, cells were seeded at a density of 7000 cells/well into 96 well tissue culture trays in culture media lacking G418. Compounds were tested in a three fold dilution series, for example starting from 50 uM. After 72 hours incubation at 37° C. and 5% CO2, Renilla luciferase activity was quantified via the Promega Renilla Luciferase or Renilla-Glo™ Luciferase Assay Systems (Promega corporation. The same method was employed for replicon assays using subgenomic genotype 1a (H77) and 2a (JFH-1) replicon cell lines with a seeding cell density of 5000 cells/well for the 2a cell lines.
The compound concentration that reduced luciferase activity by 50% (EC50) was calculated using non-linear regression.
(In antiviral work, replicon cells carry a viral genome segment that copies itself.)

For the next series, the target named is T1, 1b (BK) NS5BΔ21 (Hepatitis C virus genotype 1b, UniProt P26663).
T1 construct: 100 nM 1b (BK) NS5BΔ21
T1 sequence (P26663 2420-2989, stated change not applied): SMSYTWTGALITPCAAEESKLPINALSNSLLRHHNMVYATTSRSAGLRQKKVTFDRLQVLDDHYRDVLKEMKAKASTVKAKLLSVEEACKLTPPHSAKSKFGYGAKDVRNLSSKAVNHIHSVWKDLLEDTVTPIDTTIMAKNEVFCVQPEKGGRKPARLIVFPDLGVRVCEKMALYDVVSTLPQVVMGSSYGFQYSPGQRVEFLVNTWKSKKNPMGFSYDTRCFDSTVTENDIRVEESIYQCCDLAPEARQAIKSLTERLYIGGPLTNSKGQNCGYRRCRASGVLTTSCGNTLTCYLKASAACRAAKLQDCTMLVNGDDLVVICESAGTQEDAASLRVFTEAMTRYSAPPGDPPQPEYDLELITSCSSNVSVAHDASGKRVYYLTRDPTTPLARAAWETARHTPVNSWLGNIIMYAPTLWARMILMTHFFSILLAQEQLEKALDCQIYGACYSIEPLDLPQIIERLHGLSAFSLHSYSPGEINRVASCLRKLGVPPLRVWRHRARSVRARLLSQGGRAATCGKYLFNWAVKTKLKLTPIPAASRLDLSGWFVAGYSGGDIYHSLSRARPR
The series can be described thus: HCV polymerase inhibition assay. The series is classed as biochemical. How it is done:
HCV polymerase reactions were carried out using a modified method of Howe et al., Antimicrobial Agents and Chemotherapy 2004 48(12): 4813-4821. Reactions contained a final concentration of, 0.5% DMSO, 100 nM 1b (BK) NS5BΔ21, 20 mM Tris-HCl pH 7.5, 5 mM MgCl2, 5 mM MnCl2, 3 mM DTT, 0.05% BSA, 0.2 U/μL RNasin, 10 μg/mL Poly(rC) template, GTP (at Km) and 0.05 μCi/μL ^33P-GTP in a total reaction volume of 50 μL. Compounds were tested in a three fold dilution series, for example starting from 50 μM. Reactions were initiated with the addition of GTP and terminated after […] with 50 μL ice cold 0.2 M EDTA. Terminated reactions were transferred to DEAE 96-well filter plates, unincorporated nucleotides washed from the filters and 50 μL scintillation fluid added prior to reading on a scintillation counter. The compound concentration that reduced ^33P-GTP incorporation by 50% (IC50) was calculated using non-linear regression.

[3] abbreviates: read-out: solubility ranges at pH 6.5.

The term solubility denotes how much of the substance goes into solution per volume. Consider `CNC(=O)c1c2cc(C3CC3)c(N(CC3CCC3)S(C)(=O)=O)cc2nn1-c1ccc(Cl)cc1` [A, reference compound], for which the solubility at 30 min in series [1] (read-out: Solubility at pH 6.5) lay in the range of 1.6 to 3.1 µg/mL (≈ 3.29 to 6.37 µM).

Consider `CNC(=O)c1c2cc(C3CC3)c(N(CC3CC3)S(C)(=O)=O)cc2nn1-c1ccc(Cl)cc1` [B, reference compound], for which, in series [1] (read-out: Solubility at pH 6.5), the solubility at 30 min was 3.1 to 6.3 µg/mL (≈ 6.55 to 13.3 µM).

With `CNC(=O)c1c2cc(C3CC3)c(N(CC3CCOC3)S(C)(=O)=O)cc2nn1-c1ccc(Cl)cc1` (stereo not drawn) [C, reference compound], the solubility at 30 min in series [1] (read-out: Solubility at pH 6.5) was below 1.6 µg/mL.

What is called pEC50 is −log10 of the EC50, conventionally taken in molar units. A higher pEC50 goes with a low EC50. A word on the pIC50: it is −log10 of the IC50, conventionally taken in molar units. Low values mean a large IC50, high ones a small IC50. In the case of `CNC(=O)c1c2cc(C3CC3)c(N(CCCC3CCO3)S(C)(=O)=O)cc2nn1-c1ccc(Cl)cc1` (stereo not drawn) [Compound 4, 2-(4-chlorophenyl)-5-cyclopropyl-N-methyl-6-{(methylsulfonyl)[3-(oxetan-2-yl)propyl]amino}-2H-indazole-3-carboxamide], the negative logarithm of the EC50 (pEC50) in series [2] is above 7.00. At 1b (BK) NS5BΔ21, this compound showed a negative logarithm of the IC50 (pIC50) above 7.00.

`CNC(=O)c1c2cc(C3CC3)c(N(CCC3COC3)S(C)(=O)=O)cc2nn1-c1ccc(C)cn1` [Compound 5, 5-cyclopropyl-N-methyl-2-(5-methylpyridin-2-yl)-6-{(methylsulfonyl)[2-(oxetan-3-yl)ethyl]amino}-2H-indazole-3-carboxamide] gave a pIC50 against 1b (BK) NS5BΔ21 of 6.00 to 6.30.

In the case of `CNC(=O)c1c2cc(C3CC3)c(N(CCC3CNC3)S(C)(=O)=O)cc2nn1-c1ccc(Cl)cc1` [Compound 6, 6-{[2-(Azetidin-3-yl)ethyl](methylsulfonyl)amino}-2-(4-chlorophenyl)-5-cyclopropyl-N-methyl-2H-indazole-3-carboxamide], the negative logarithm of the EC50 (pEC50) in series [2] is 5.00 to 6.00. At 1b (BK) NS5BΔ21, the pIC50 was 6.31 to 7.00.

For `CNC(=O)c1c2cc(C3CC3)c(N(CCC3CN(C)C3)S(C)(=O)=O)cc2nn1-c1ccc(Cl)cc1` [Compound 7, 2-(4-chlorophenyl)-5-cyclopropyl-N-methyl-6-{[2-(1-methylazetidin-3-yl)ethyl](methylsulfonyl)amino}-2H-indazole-3-carboxamide], in series [2], the pEC50 is 6.31 to 7.00. For the same compound, the pIC50 at 1b (BK) NS5BΔ21 is 6.31 to 7.00.

Take `CNC(=O)c1c2cc(C3CC3)c(N(CCC3COC3C)S(C)(=O)=O)cc2nn1-c1ccc(Cl)cc1` (stereo not drawn) [Compound 9, 2-(4-Chlorophenyl)-5-cyclopropyl-N-methyl-6-[{2[-2-methyloxetan-3-yl]ethyl}(methylsulfonyl)amino]-2H-indazole-3-carboxamide]: the solubility at 30 min in series [1] (setting [3]) lay in the range of 25 to 50 µg/mL (≈ 48.4 to 96.7 µM).

As for `CNC(=O)c1c2cc(C3CC3)c(N(CCC3COC3)S(C)(=O)=O)cc2nn1-c1ccc(Cl)cc1` [Compound 10, 2-(4-chlorophenyl)-5-cyclopropyl-N-methyl-6-{(methylsulfonyl)[2-(oxetan-3-yl)ethyl]amino}-2H-indazole-3-carboxamide], the negative-log EC50 (pEC50) in series [2] was above 7.00. The pIC50 at 1b (BK) NS5BΔ21 is above 7.00.

`CNC(=O)c1c2cc(C3CC3)c(N(CCC3(C)COC3)S(C)(=O)=O)cc2nn1-c1ccc(Cl)cc1` [Compound 11, 2-(4-chlorophenyl)-5-cyclopropyl-N-methyl-6-{[2-(3-methyloxetan-3-yl)ethyl](methylsulfonyl)amino}-2H-indazole-3-carboxamide] gave a negative logarithm of the EC50 (pEC50) in series [2] above 7.00. On 1b (BK) NS5BΔ21, this compound gave a pIC50 above 7.00.

In turn, `CNC(=O)c1c2cc(C3CC3)c(N(CC3(C)COC3)S(C)(=O)=O)cc2nn1-c1ccc(Cl)cc1` [Compound 12, 2-(4-chlorophenyl)-5-cyclopropyl-N-methyl-6-{[(3-methyloxetan-3-yl)methyl](methylsulfonyl)amino}-2H-indazole-3-carboxamide] had a pEC50 in series [2] of 5.00 to 6.00. Besides, the pIC50 at 1b (BK) NS5BΔ21 is 5.00 to 6.00.

Compound `CNC(=O)c1c2cc(C3CC3)c(N(CCC3CCO3)S(C)(=O)=O)cc2nn1-c1ccc(Cl)cc1` (stereo not drawn) [Compound 13, 2-(4-chlorophenyl)-5-cyclopropyl-N-methyl-6-{(methylsulfonyl)[2-(oxetan-2-yl)ethyl]amino}-2H-indazole-3-carboxamide] had a negative logarithm of the EC50 (pEC50) in series [2] above 7.00. The same compound gave a negative-log IC50 (pIC50) on 1b (BK) NS5BΔ21 of 6.31 to 7.00.

In series [2], `CNC(=O)c1c2cc(C3CC3)c(N(CC(C)C3COC3)S(C)(=O)=O)cc2nn1-c1ccc(Cl)cc1` (stereo not drawn) [Compound 15, 2-(4-chlorophenyl)-5-cyclopropyl-N-methyl-6-{(methylsulfonyl) [2-(oxetan-3-yl)propyl]amino}-2H-indazole-3-carboxamide] gave a pEC50 of 6.00 to 6.30. The negative-log IC50 (pIC50) on 1b (BK) NS5BΔ21 was 6.31 to 7.00.

Turning to `CNC(=O)c1c2cc(C3CC3)c(N(CCC3(C(C)C)COC3)S(C)(=O)=O)cc2nn1-c1ccc(Cl)cc1` [Compound 16, 2-(4-chlorophenyl)-5-cyclopropyl-N-methyl-6-[(methylsulfonyl) {2-[3-(propan-2-yl)oxetan-3-yl]ethyl}amino]-2H-indazole-3-carboxamide], the pEC50 in series [2] was above 7.00. In addition, on 1b (BK) NS5BΔ21, the pIC50 is above 7.00.

For the compound `CNC(=O)c1c2cc(C3CC3)c(N(CCC3CN(C(=O)OC(C)(C)C)C3)S(C)(=O)=O)cc2nn1-c1ccc(Cl)cc1` [Compound 19, tert-butyl 3-(2-{[2-(4-chlorophenyl)-5-cyclopropyl-3-(methylcarbamoyl)-2H-indazol-6-yl](methylsulfonyl)amino}ethyl)azetidine-1-carboxylate], the pEC50 in series [2] was above 7.00. The compound also showed a negative-log IC50 (pIC50) on 1b (BK) NS5BΔ21 of 6.31 to 7.00.

On to `CNC(=O)c1c2cc(C3CC3)c(N(CCC3COC3C)S(C)(=O)=O)cc2nn1-c1ccc(C)cn1` (stereo not drawn) [Compound 20, 5-cyclopropyl-N-methyl-6-{[2-(2-methyloxetan-3-yl)ethyl](methylsulfonyl)amino}-2-(5-methylpyridin-2-yl)-2H-indazole-3-carboxamide], for which, in series [1] (setting [3]), the solubility at 30 min fell in the range of 12.5 to 25 µg/mL (≈ 25.1 to 50.2 µM).

As for `CNC(=O)c1c2cc(C3CC3)c(N(CCC3(C)COC3)S(C)(=O)=O)cc2nn1-c1ccc(C)cn1` [Compound 21, 5-cyclopropyl-N-methyl-6-{[2-(3-methyloxetan-3-yl)ethyl](methylsulfonyl)amino}-2-(5-methylpyridin-2-yl)-2H-indazole-3-carboxamide], in series [1] (setting [3]), the solubility at 30 min was above 100 µg/mL.

As for `CNC(=O)c1c2cc(C3CC3)c(N(CCN3CC(O)C3)S(C)(=O)=O)cc2nn1-c1ccc(Cl)cc1` [Compound 22, 2-(4-chlorophenyl)-5-cyclopropyl-6-[2-(3-hydroxyazetidin-1-yl)ethyl-methylsulfonyl-amino]-N-methyl-indazole-3-carboxamide], the negative logarithm of the EC50 (pEC50) in series [2] was 6.31 to 7.00. The same compound showed a pIC50 against 1b (BK) NS5BΔ21 of 6.00 to 6.30.

In the case of `CNC(=O)c1c2cc(C3CC3)c(N(CCC3CN(C(=O)OC(C)(C)C)C3)S(C)(=O)=O)cc2nn1-c1ccc(C)cn1` [Compound 24, tert-butyl 3-[2-[[5-cyclopropyl-3-(methylcarbamoyl)-2-(5-methyl-2-pyridyl)indazol-6-yl]-methylsulfonyl-amino]ethyl]azetidine-1-carboxylate], the solubility at 30 min in series [1] (setting [3]) fell in the range of 12.5 to 25 µg/mL (≈ 21.5 to 42.9 µM).

In series [2], `CNC(=O)c1c2cc(C3CC3)c(N(CCC3(OC)CN(C(=O)OC(C)(C)C)C3)S(C)(=O)=O)cc2nn1-c1ccc(Cl)cc1` [Compound 27, tert-butyl 3-[2-[[2-(4-chlorophenyl)-5-cyclopropyl-3-(methylcarbamoyl)indazol-6-yl]-methylsulfonyl-amino]ethyl]-3-methoxy-azetidine-1-carboxylate] gave a negative logarithm of the EC50 (pEC50) above 7.00. In addition, the negative logarithm of the IC50 (pIC50) at 1b (BK) NS5BΔ21 was 6.00 to 6.30.

For `CNC(=O)c1c2cc(C3CC3)c(N(CCC3(OC)COC3)S(C)(=O)=O)cc2nn1-c1ccc(C)cn1` [Compound 28, 5-cyclopropyl-6-[2-(3-methoxyoxetan-3-yl)ethyl-methylsulfonyl-amino]-N-methyl-2-(5-methyl-2-pyridyl)indazole-3-carboxamide], the solubility at 30 min in series [1] (setting [3]) fell in the range of 50 to 100 µg/mL (≈ 97.3 to 195 µM).

In series [2], `CNC(=O)c1c2cc(C3CC3)c(N(CCC3COC3C)S(C)(=O)=O)cc2nn1-c1ccc(Cl)cc1` (stereo not drawn) [Compound 31, 2-(4-chlorophenyl)-5-cyclopropyl-N-methyl-6-[2-[-2-methyloxetan-3-yl]ethyl-methylsulfonyl-amino]indazole-3-carboxamide] showed a negative-log EC50 (pEC50) above 7.00. The same compound had a pIC50 on 1b (BK) NS5BΔ21 of 6.31 to 7.00.

For the compound `CNC(=O)c1c2cc(C3CC3)c(N(CCC3CCOCC3)S(C)(=O)=O)cc2nn1-c1ccc(Cl)cc1` [D, reference compound], in series [1] (read-out: Solubility at pH 6.5), the solubility at 30 min was below 1.6 µg/mL.
